Converted amounts (≈) assume the structure as drawn. The source made the active and inactive calls. The calls are words filed in the database; no cut-off is given here. Bounds are passed on as bounds.

Consider 17 compounds from ChEMBL document CHEMBL5131429, “Synthesis and antifungal evaluation of phenol-derived bis(indolyl)methanes combined with FLC against Candida albicans” (Bioorg Med Chem Lett, 2022).

For series [1], the system named is Candida albicans. The experiment in a line: Antifungal activity against Candida albicans SC5314 assessed as fractional inhibitory concentration index in presence of fluconazole by microdilution method. The series is classed as functional. (Dilution methods test growth across graded concentrations, often in twofold steps.)
Series [2] concerns Candida albicans. The experiment in a line: Antifungal activity against Candida albicans CA23 by microdilution method. The series is classed as functional.
For series [3], the system named is Candida albicans. The series is described as follows: Antifungal activity against Candida albicans SC5314 in presence of fluconazole by microdilution method. The series is classed as functional.
Series [4] concerns Candida albicans. The series is described as follows: Antifungal activity against Candida albicans CA23 assessed as fractional inhibitory concentration index in presence of fluconazole by microdilution method. It is filed as functional.
For series [5], the system named is Candida albicans. The series is described as follows: Antifungal activity against Candida albicans CA23 in presence of fluconazole by microdilution method. The series is classed as functional.
For series [6], the system named is Candida albicans. The series is described as follows: Antifungal activity against Candida albicans SC5314 by microdilution method. It is filed as functional.
Series [7] relates to Candida albicans. The series is described as follows: Antifungal activity against Candida albicans CA3816 by microdilution method. The series is classed as functional.
Series [8] can be described thus: Cytotoxicity against human 16HBE by MTS assay. The series is classed as toxicity, cell-based. The note with it: 16HBE14o- cells. (Formazan colour is commonly taken as a measure of viable cells.)
For series [9], the system named is Candida albicans. The experiment in a line: Antifungal activity against Candida albicans CA187 by microdilution method. The series is classed as functional.
Series [10] concerns Candida albicans. The experiment in a line: Antifungal activity against Candida albicans CA5408 by microdilution method. The series is classed as functional.
Series [11] deals with Candida albicans. The series is described as follows: Induction of mitochondrial membrane potential loss in Candida albicans at 1 ug/ml after 16 hrs by JC-1 staining based fluorescence microplate reader. The following applies: dose 1.0 µg/ml. The series is classed as functional, organism-based.
Series [12] concerns Candida albicans. The series is described as follows: Antifungal activity against Candida albicans CA558 by microdilution method. The series is classed as functional.
A short description of series [13]: Cytotoxicity against PBMC (unknown origin) by MTT assay. The series is classed as toxicity, cell-based.
Series [14] relates to Candida albicans. The experiment in a line: Antifungal activity against Candida albicans CA3511 by microdilution method. The series is classed as functional.
Series [15] has as its system Candida albicans. The series is described as follows: Antifungal activity against Candida albicans CA800 by microdilution method. The series is classed as functional.
The subject of series [16] is Candida albicans. The experiment in a line: Antifungal activity against Candida albicans ATCC14053 by microdilution method. It is filed as functional.
In series [17] the test system is Candida albicans. The experiment in a line: Antifungal activity against Candida albicans CA602 by microdilution method. It is filed as functional.

Turning to `Oc1c(Cl)cccc1C(c1c[nH]c2ccccc12)c1c[nH]c2ccccc12`, the figures for the “fractional inhibitory concentration index (FICI)” value with Candida albicans [1] and with Candida albicans [4] were 0.05 and 0.02, respectively. Besides, the MIC80 in the series with Candida albicans [2] is more than 200 µg/mL; in the series on Candida albicans [3], 1.31 µg/mL; with Candida albicans [5], 5.82 µg/mL; against Candida albicans [6], more than 200 µg/mL.
On to `Oc1c(Cl)cc(Cl)cc1C(c1c[nH]c2ccccc12)c1c[nH]c2ccccc12`, for which the “fractional inhibitory concentration index (FICI)” value with Candida albicans [1] and with Candida albicans [4] was 0.02 throughout. The MIC80 was more than 200 µg/mL against Candida albicans [2], 0.55 µg/mL in the series with Candida albicans [3], 5.88 µg/mL in the series on Candida albicans [5] and more than 200 µg/mL in the series on Candida albicans [6].
As to `Oc1c(Br)cc(Br)cc1C(c1c[nH]c2ccccc12)c1c[nH]c2ccccc12`, the entries for the “fractional inhibitory concentration index (FICI)” value in the series with Candida albicans [1] and in the series on Candida albicans [4] were 0.11 and 0.02, respectively. Also, the MIC80 against Candida albicans [2] is more than 200 µg/mL; with Candida albicans [3] it was 2.85 µg/mL; with Candida albicans [5] it was 6.01 µg/mL; with Candida albicans [6], more than 200 µg/mL.
For the compound `Oc1c(Cl)cc(Br)cc1C(c1c[nH]c2ccccc12)c1c[nH]c2ccccc12`, the “fractional inhibitory concentration index (FICI)” value is 0.04 in the series on Candida albicans [1] and 0.36 in the series on Candida albicans [4]. The MIC80 in the series with Candida albicans [2] is 18.3 µg/mL (≈ 40.6 µM); in the series with Candida albicans [3], 0.9 µg/mL; in the series with Candida albicans [5] it was 6.59 µg/mL; in the series on Candida albicans [6], more than 200 µg/mL.
Take `OC(Cn1cncn1)(Cn1cncn1)c1ccc(F)cc1F` [FLUCONAZOLE]: the MIC80 in the series with Candida albicans [7], against Candida albicans [9], in the series on Candida albicans [2], against Candida albicans [10], in the series on Candida albicans [12] and against Candida albicans [14] was more than 200 µg/mL each time. Moreover, the MIC80 is more than 200 µg/mL with Candida albicans [15], more than 200 µg/mL in the series with Candida albicans [16], more than 200 µg/mL in the series with Candida albicans [17] and 5.79 µg/mL (≈ 18.9 µM) in the series with Candida albicans [6]. For the same compound, the CC50 in [8] was more than 1000 µg/mL; in series [13] it was 676 µg/mL (≈ 2210 µM). Also, the outcome in the series on Candida albicans [11] was Active.
As to `O=[N+]([O-])c1ccc(O)c(C(c2c[nH]c3ccccc23)c2c[nH]c3ccccc23)c1`, the MIC80 in the series on Candida albicans [2] worked out at 180 µg/mL (≈ 471 µM); with Candida albicans [3], 25.6 µg/mL; in the series with Candida albicans [5], 29.3 µg/mL; in the series with Candida albicans [6] it was 0.69 µg/mL (≈ 1.8 µM). For the same compound, the “fractional inhibitory concentration index (FICI)” value in the series with Candida albicans [4] came to 0.18.
With `Oc1cc(F)ccc1C(c1c[nH]c2ccccc12)c1c[nH]c2ccccc12`, the “fractional inhibitory concentration index (FICI)” value in the series on Candida albicans [1] was 0.58; in the series with Candida albicans [4], 0.02. Further, the MIC80 with Candida albicans [2] is more than 200 µg/mL; in the series on Candida albicans [3], 15.5 µg/mL; with Candida albicans [5] it was 7.4 µg/mL; against Candida albicans [6] it was more than 200 µg/mL.
For the compound `Oc1ccccc1C(c1c[nH]c2ccccc12)c1c[nH]c2ccccc12`, the “fractional inhibitory concentration index (FICI)” value is 0.12 with Candida albicans [1] and 0.03 with Candida albicans [4]. Besides, the MIC80 was more than 200 µg/mL in the series with Candida albicans [2], 3.22 µg/mL in the series with Candida albicans [3], 6.07 µg/mL with Candida albicans [5] and more than 200 µg/mL with Candida albicans [6].
Consider `Oc1ccc(O)c(C(c2c[nH]c3ccccc23)c2c[nH]c3ccccc23)c1`, for which the “fractional inhibitory concentration index (FICI)” value in the series on Candida albicans [1] was found to be 0.07; in the series with Candida albicans [4], 0.98. The MIC80 turned out to be 5.91 µg/mL (≈ 16.7 µM) with Candida albicans [2], 1.05 µg/mL in the series on Candida albicans [3], 5.7 µg/mL in the series on Candida albicans [5] and 32.1 µg/mL (≈ 90.5 µM) in the series on Candida albicans [6].
`Cc1ccc(C(c2c[nH]c3ccccc23)c2c[nH]c3ccccc23)c(O)c1`: the “fractional inhibitory concentration index (FICI)” value in the series with Candida albicans [1] was found to be 0.14; with Candida albicans [4], 0.02. Also, the MIC80 is 37 µg/mL (≈ 105 µM) in the series on Candida albicans [2], 3.67 µg/mL with Candida albicans [3], 5.75 µg/mL in the series on Candida albicans [5] and more than 200 µg/mL against Candida albicans [6].
`Oc1ccc(Br)cc1C(c1c[nH]c2ccccc12)c1c[nH]c2ccccc12`: the “fractional inhibitory concentration index (FICI)” value in the series on Candida albicans [1] worked out at 0.13; with Candida albicans [4] it was 0.02. Also, the MIC80 was more than 200 µg/mL in the series with Candida albicans [2], 3.58 µg/mL with Candida albicans [3], 5.81 µg/mL in the series with Candida albicans [5] and more than 200 µg/mL in the series on Candida albicans [6].
Turning to `Oc1cc(F)c(Br)cc1C(c1c[nH]c2ccccc12)c1c[nH]c2ccccc12`, the figures for the “fractional inhibitory concentration index (FICI)” value in the series on Candida albicans [1] and in the series on Candida albicans [4] were 0.2 and 0.02, respectively. Moreover, the MIC80 against Candida albicans [2] is more than 200 µg/mL; with Candida albicans [3], 0.82 µg/mL; in the series on Candida albicans [5], 5.95 µg/mL; with Candida albicans [6], 4.97 µg/mL (≈ 11.4 µM).
Turning to `Cc1ccc(O)c(C(c2c[nH]c3ccccc23)c2c[nH]c3ccccc23)c1`, the “fractional inhibitory concentration index (FICI)” value with Candida albicans [1] is 0.33; in the series on Candida albicans [4], 0.02. Moreover, the MIC80 is more than 200 µg/mL in the series with Candida albicans [2], 4.28 µg/mL with Candida albicans [3], 5.83 µg/mL in the series on Candida albicans [5] and 23.2 µg/mL (≈ 65.9 µM) in the series with Candida albicans [6].
In the case of `Oc1ccc(F)cc1C(c1c[nH]c2ccccc12)c1c[nH]c2ccccc12`, the “fractional inhibitory concentration index (FICI)” value is recorded as 0.04 in the series on Candida albicans [1] and 0.02 in the series on Candida albicans [4]. The MIC80 in the series on Candida albicans [2] was more than 200 µg/mL; in the series with Candida albicans [3], 0.98 µg/mL; in the series with Candida albicans [5], 5.92 µg/mL; with Candida albicans [6], more than 200 µg/mL.
With `Oc1ccc(Cl)cc1C(c1c[nH]c2ccccc12)c1c[nH]c2ccccc12`, the results for the “fractional inhibitory concentration index (FICI)” value with Candida albicans [1] and in the series with Candida albicans [4] were 0.12 and 0.1, respectively. Moreover, the MIC80 in the series on Candida albicans [2] was more than 200 µg/mL; with Candida albicans [3], 3.27 µg/mL; in the series on Candida albicans [5], 31.8 µg/mL; in the series with Candida albicans [6] it was more than 200 µg/mL.
As for `COc1ccc(C(c2c[nH]c3ccccc23)c2c[nH]c3ccccc23)c(O)c1`, the results for the “fractional inhibitory concentration index (FICI)” value with Candida albicans [1] and with Candida albicans [4] were 0.58 and 0.18, respectively. The MIC80 amounted to 32.7 µg/mL (≈ 88.9 µM) in the series on Candida albicans [2], 1.01 µg/mL with Candida albicans [3], 5.79 µg/mL in the series with Candida albicans [5] and 1.85 µg/mL (≈ 5.02 µM) in the series on Candida albicans [6].
`CN(C)c1ccc(C(c2c[nH]c3ccccc23)c2c[nH]c3ccccc23)c(O)c1`: the “fractional inhibitory concentration index (FICI)” value in the series with Candida albicans [1] is 2.57; in the series with Candida albicans [4], 0.24. The MIC80 against Candida albicans [2] worked out at 24 µg/mL (≈ 62.8 µM); with Candida albicans [3] it was 0.94 µg/mL; in the series with Candida albicans [5], 5.76 µg/mL; against Candida albicans [6] it was 0.37 µg/mL (≈ 0.97 µM).

As usually defined, the MIC80 is the lowest concentration that inhibits either 80% of growth or 80% of the strains tested, depending on the study. A word on the CC50: it is the concentration giving 50% cytotoxicity. A higher CC50 goes with lower toxicity to the cells.
